Reference: patent US8791158B2, “Methods of treating meibomian gland dysfunction” (GTX, Inc., priority 2010, dated 2014)
Marks after values point to notes of the source that are not given here.

Assays:
[1] = test system: acute orchiectomized (ORX) rabbit model; assay: Palmitate:stearate ratios in tears, Meibomian glands and harderian glands, Example 4; assay type: in vivo; conditions: for Palmitate:stearate ratios in Meibomian glands / Palmitate:stearate ratios in harderian glands: ORX rabbits, topical 2.5 mg/kg once daily 14 d, mean
Description: The goal of this study was to compare the effects of Compound 1 and Compound 2, two tissue selective SARMs with differing androgenic potential, in modulating tear composition in an acute orchiectomized (ORX) rabbit model.
Twenty New Zealand white rabbits weighing approximately 3 lbs were allowed to acclimate for two weeks before the start of the study Animals were weighed on day 0 of the study, randomized according to body weight and allotted to the following dose groups:
Surgeries for the study were staggered to limit the maximum number of surgeries per day to six. One animal from each group was entered into the study every day and either sham or orchiectomy was performed as described below Animals were premedicated with glycopyrrolate (0.02 mg/kg) and anesthesia was induced with a combination of ketamine (15 mg/kg): medetomidine (0.25 mg/kg). Anesthesia was maintained with isoflurane (1 liter/hr). ORX was performed using a scrotal incision. For the sham operated animals, the scrotal sac was incised and skin closed using tissue glue Animals were revived from anesthesia using atipamezole (1 mg/kg) SQ. Analgesia was provided with buprenorphine (0.05 mg/kg).
Immediately after the animals had recovered from anesthesia, they were dosed with the appropriate test articles as indicated above. Drug dosing was done once daily for 14 d. Blood samples were collected at 30, 60, 120, 240 and 1440 minutes after dose administration on day 11 for pharmacokinetic analyses. Plasma was separated for HPLC analysis of parent drug concentrations. Tears were collected using Schirmer tear strips (Alcon, Tex.) on day 0 before surgery and 24 hours after the last administration of drug (day 15). The tears were stored at −80° C. until shipment for analysis. Lipids were hydrolyzed, extracted from the Schirmer strips, derivatized, and subjected to GC-FID to evaluate the lipid composition. The samples were evaluated for the presence of 28 saturated and unsaturated fatty acids that included methyl caprate (C10:0), methyl laurate (C12:0), methyl 11-dodecenoate (C12:1), methyl myristate (C14:0), methyl myristoleate (C14:1), methyl palmitate (C16:0), methyl palmitoleate (C16:1), methyl stearate (C18:0), methyl oleate (C18:1), methyl vaccenate (C18:1), methyl linoleate (C18:2), methyl gamma linoleate (C18:3), methyl linoleate (C18:3), methyl arachidate (C20:0), methyl 11-eicosenoate (C20:1), methyl 11,14 eicosadinoate (C20:2), methyl 8,11,14 eicosatrienoate (C20:3), methyl eicosapentaenoate (C20:5), methyl behenate (C22:0), methyl erucate (C22:1), methyl 13,16 docosaenoate (C22:2), methyl docosatetraenoate (C22:4), methyl docosapentaenoate (C22:5), methyl docosahexaenoate (C22:6), methyl lignocerate (C24:0), and methyl nervonate (C24:1). Area under the curve for each individual peak was determined using the GC ChemStation software. To normalize for the tear content, the lipid composition was expressed as a ratio of the lipid that was most affected by castration (palmitate) to one which remained relatively constant (stearate).
At the end of the study, the animals were euthanatized. The left harderian and Meibomian glands were collected for lipid analysis and snap frozen using an ethanol:dry ice bath. Samples were stored at −80° C. until shipment for analysis. The right eyelids were embedded in OCT medium and shipped to Paragon Biosciences (Washington D.C.) for histology and Oil-red-O quantification of lipids. Images of three separate fields were taken from each eyelid at random and the amount of cells staining red in each field was scored using commercially available software. A scoring scheme was adopted with a scale of 0-4 to evaluate the staining intensities with 0=<1% cells stained, 1+ for 2-5% of cells stained, 2+=6-10% stain, 3+=11-20% staining, 4+ for >21% cells stained.

[2] = Pharmacokinetic analysis of rabbit plasma after topical dosing, Example 4; assay type: in vivo; conditions: topical or ocular, 2.5 mg/kg, topical 2.5 mg/kg, day 11 of dosing, read-out: Mean plasma concentrations over time (AUC)
Method: Immediately after the animals had recovered from anesthesia, they were dosed with the appropriate test articles as indicated above. Drug dosing was done once daily for 14 d. Blood samples were collected at 30, 60, 120, 240 and 1440 minutes after dose administration on day 11 for pharmacokinetic analyses. Plasma was separated for HPLC analysis of parent drug concentrations. Tears were collected using Schirmer tear strips (Alcon, Tex.) on day 0 before surgery and 24 hours after the last administration of drug (day 15). The tears were stored at −80° C. until shipment for analysis. […] Area under the curve for each individual peak was determined using the GC ChemStation software. To normalize for the tear content, the lipid composition was expressed as a ratio of the lipid that was most affected by castration (palmitate) to one which remained relatively constant (stearate).
Plasma samples collected after dosing on day 11 were analyzed using an LCMS/MS method. […]
Mobile phase consisted of 60% acetonitrile, 40% water and 0.1% formic acid. […] The plasma concentration—time data were analyzed by non-compartmental methods using WinNonlin (Version 3.1, Pharsight Corporation, Mountain View, Calif., USA). The area under the plasma concentration—time curve from time zero to infinity (AUC) was calculated by the trapezoidal rule with extrapolation to time infinity. […]

Structure (SMILES)	Palmitate:stearate ratios in Meibomian glands [1]	Palmitate:stearate ratios in harderian glands [1]	Change of palmitate:stearate ratio in Meibomian glands ([1]; topical 2.5 mg/kg)	Change of palmitate:stearate ratio in harderian glands compared to control animals ([1]; topical 2.5 mg/kg)	AUC [2]	Increase of tear palmitate:stearate ratio over intact vehicle treated animals ([1]; topical 2.5 mg/kg)	Increase of tear palmitate:stearate ratio relative to ORX vehicle-treated animals ([1]; topical 2.5 mg/kg)
C[C@](O)(COc1ccc(C#N)cc1)C(=O)Nc1ccc(C#N)c(C(F)(F)F)c1 [Compound 1, (S)—N-(4-Cyano-3-(trifluoromethyl)phenyl)-3-(4-cyanophenoxy)-2-hydroxy-2-methylpropanamide]	4.07^b	5.1	two fold increase	no change	25.2 µM·h		
C[C@](O)(COc1ccc(C#N)c(F)c1)C(=O)Nc1ccc(C#N)c(C(F)(F)F)c1 [Compound 2, (S)—N-(4-cyano-3-(trifluoromethyl)phenyl)-3-(4-cyano-3-fluorophenoxy)-2-hydroxy-2-methylpropanamide]	2.82	7.76	mild increase	significant increase	12.2 µM·h	~1.5 fold	approximately 2.5 times
